This passage reports mass density, refractive index and viscosity results from the NIST ThermoML archive (doi:10.1016/j.jct.2012.10.008).

In general, mass density refers to the mass of a sample divided by its volume. What is called refractive index is the speed of light in vacuum divided by its phase velocity in the sample. The term viscosity denotes the resistance of a fluid to flow.

± gives the expanded uncertainty stated by the source.

Experiment in the first data set: not given
The following applies: 313.15 K; 101.33 kPa; Liquid; Vibrating tube method.
For `CO` [methanol], the mass density is 772.25 ± 0.15 kg/m3.
Still for that read-out and setting: the same measure for `CCO` [ethanol]: 772.11 ± 0.15 kg/m3; for `CCCC[NH3+].O=[N+]([O-])[O-]` [n-butylammonium nitrate]: 1092.17 ± 6.5 kg/m3.
For the molecule `CCCO` [propan-1-ol], the mass density was found to be 787.36 ± 0.15 kg/m3.

The nature of another data set: refractive index (Na D-line) (dimensionless). The following applies: 298.15 K; 101.33 kPa; Liquid; Standard Abbe refractometry.
`CCCCO` [butan-1-ol]: the refractive index came to 1.3972 ± 0.0004.
Turning to `CO` [methanol], the refractive index worked out at 1.3264 ± 0.0004.
Take `CCO` [ethanol]: the refractive index is 1.3594 ± 0.0004.
Take `CCCC[NH3+].O=[N+]([O-])[O-]` [n-butylammonium nitrate]: the refractive index was found to be 1.4458 ± 0.0011.
As for `CCCO` [propan-1-ol], the refractive index is on record as 1.3833 ± 0.0004.

Another data set in a line: xn = mol fraction of the nth substance listed. To be noted: 293.15 K; 101 kPa; Liquid; Falling or rolling sphere viscometry; x2 = 0.
On to `CCO` [ethanol] + CCCC[NH3+].O=[N+]([O-])[O-], for which the viscosity amounted to 1.218 ± 0.01 mPa·s.
`CCCCO` [butan-1-ol] + CCCC[NH3+].O=[N+]([O-])[O-]: the viscosity is 2.942 ± 0.023 mPa·s.
Consider `CO` [methanol] + CCCC[NH3+].O=[N+]([O-])[O-], for which the viscosity was found to be 0.588 ± 0.006 mPa·s.
In the case of `CCCO` [propan-1-ol] + CCCC[NH3+].O=[N+]([O-])[O-], the viscosity stood at 2.208 ± 0.017 mPa·s.

Staying with this data set, now noted: 293.15 K; 101 kPa; Liquid; Vibrating tube method; x2 = 0.
On to `CCO` [ethanol] + CCCC[NH3+].O=[N+]([O-])[O-], for which the mass density is recorded as 789.5 ± 0.15 kg/m3.
As for `CCCCO` [butan-1-ol] + CCCC[NH3+].O=[N+]([O-])[O-], the mass density was determined as 809.76 ± 0.14 kg/m3.
As to `CO` [methanol] + CCCC[NH3+].O=[N+]([O-])[O-], the mass density is reported as 791.23 ± 0.15 kg/m3.
Turning to `CCCO` [propan-1-ol] + CCCC[NH3+].O=[N+]([O-])[O-], the mass density worked out at 803.56 ± 0.14 kg/m3.

Staying with this data set, now noted: 298.15 K; 101 kPa; Liquid; Falling or rolling sphere viscometry; x2 = 0.
As for `CCO` [ethanol] + CCCC[NH3+].O=[N+]([O-])[O-], the viscosity was found to be 1.134 ± 0.009 mPa·s.
`CCCCO` [butan-1-ol] + CCCC[NH3+].O=[N+]([O-])[O-]: the viscosity came to 2.572 ± 0.02 mPa·s.
Take `CO` [methanol] + CCCC[NH3+].O=[N+]([O-])[O-]: the viscosity amounted to 0.552 ± 0.006 mPa·s.
Regarding `CCCO` [propan-1-ol] + CCCC[NH3+].O=[N+]([O-])[O-], the viscosity came out at 1.975 ± 0.016 mPa·s.

Staying with this data set, now noted: 298.15 K; 101 kPa; Liquid; Vibrating tube method; x2 = 0.
As for `CCO` [ethanol] + CCCC[NH3+].O=[N+]([O-])[O-], the mass density was found to be 785.39 ± 0.15 kg/m3.
For the molecule `CCCCO` [butan-1-ol] + CCCC[NH3+].O=[N+]([O-])[O-], the mass density is recorded as 805.94 ± 0.14 kg/m3.
For `CO` [methanol] + CCCC[NH3+].O=[N+]([O-])[O-], the mass density is given as 786.54 ± 0.15 kg/m3.
Take `CCCO` [propan-1-ol] + CCCC[NH3+].O=[N+]([O-])[O-]: the mass density is 799.58 ± 0.15 kg/m3.

Staying with this data set, now noted: 303.15 K; 101 kPa; Liquid; Falling or rolling sphere viscometry; x2 = 0.
For `CCO` [ethanol] + CCCC[NH3+].O=[N+]([O-])[O-], the viscosity is 1.01 ± 0.008 mPa·s.
For the molecule `CCCCO` [butan-1-ol] + CCCC[NH3+].O=[N+]([O-])[O-], the viscosity was determined as 2.265 ± 0.018 mPa·s.
Same read-out and setting: the result for `CO` [methanol] + CCCC[NH3+].O=[N+]([O-])[O-] reads 0.516 ± 0.006 mPa·s.
Regarding `CCCO` [propan-1-ol] + CCCC[NH3+].O=[N+]([O-])[O-], the viscosity came to 1.738 ± 0.014 mPa·s.

The same data set, now with this note: 303.15 K; 101 kPa; Liquid; Vibrating tube method; x2 = 0.
With `CCO` [ethanol] + CCCC[NH3+].O=[N+]([O-])[O-], the mass density came out at 780.69 ± 0.15 kg/m3.
On to `CCCCO` [butan-1-ol] + CCCC[NH3+].O=[N+]([O-])[O-], for which the mass density worked out at 802.11 ± 0.14 kg/m3.
In the case of `CO` [methanol] + CCCC[NH3+].O=[N+]([O-])[O-], the mass density is 781.81 ± 0.15 kg/m3.
Turning to `CCCO` [propan-1-ol] + CCCC[NH3+].O=[N+]([O-])[O-], the mass density came out at 795.59 ± 0.15 kg/m3.

The data set is the same for the next values; noted with them: 308.15 K; 101 kPa; Liquid; Falling or rolling sphere viscometry; x2 = 0.
`CCO` [ethanol] + CCCC[NH3+].O=[N+]([O-])[O-]: the viscosity is given as 0.907 ± 0.008 mPa·s.
Regarding `CCCCO` [butan-1-ol] + CCCC[NH3+].O=[N+]([O-])[O-], the viscosity was determined as 2.002 ± 0.016 mPa·s.
For `CO` [methanol] + CCCC[NH3+].O=[N+]([O-])[O-], the viscosity is listed as 0.486 ± 0.005 mPa·s.
On the same count and under the same terms, the same measure for `CCCO` [propan-1-ol] + CCCC[NH3+].O=[N+]([O-])[O-]: 1.549 ± 0.012 mPa·s.

Staying with this data set, now noted: 308.15 K; 101 kPa; Liquid; Vibrating tube method; x2 = 0.
With `CCO` [ethanol] + CCCC[NH3+].O=[N+]([O-])[O-], the mass density is reported as 776.35 ± 0.15 kg/m3.
On the same count and under the same terms, the same measure for `CCCCO` [butan-1-ol] + CCCC[NH3+].O=[N+]([O-])[O-]: 798.18 ± 0.15 kg/m3; for `CO` [methanol] + CCCC[NH3+].O=[N+]([O-])[O-]: 777.05 ± 0.15 kg/m3; for `CCCO` [propan-1-ol] + CCCC[NH3+].O=[N+]([O-])[O-]: 791.48 ± 0.15 kg/m3.

The same data set, now with this note: 313.15 K; 101 kPa; Liquid; Falling or rolling sphere viscometry; x2 = 0.
Regarding `CCO` [ethanol] + CCCC[NH3+].O=[N+]([O-])[O-], the viscosity amounted to 0.836 ± 0.007 mPa·s.
As for `CCCCO` [butan-1-ol] + CCCC[NH3+].O=[N+]([O-])[O-], the viscosity is recorded as 1.787 ± 0.014 mPa·s.
For the molecule `CO` [methanol] + CCCC[NH3+].O=[N+]([O-])[O-], the viscosity turned out to be 0.461 ± 0.005 mPa·s.
On to `CCCO` [propan-1-ol] + CCCC[NH3+].O=[N+]([O-])[O-], for which the viscosity turned out to be 1.382 ± 0.011 mPa·s.

The same data set, now with this note: 313.15 K; 101 kPa; Liquid; Vibrating tube method; x2 = 0.
In the case of `CCO` [ethanol] + CCCC[NH3+].O=[N+]([O-])[O-], the mass density is reported as 772.11 ± 0.15 kg/m3.
Take `CCCCO` [butan-1-ol] + CCCC[NH3+].O=[N+]([O-])[O-]: the mass density is on record as 794.39 ± 0.15 kg/m3.
Still for that read-out and setting: the same measure for `CO` [methanol] + CCCC[NH3+].O=[N+]([O-])[O-]: 772.25 ± 0.15 kg/m3; for `CCCO` [propan-1-ol] + CCCC[NH3+].O=[N+]([O-])[O-]: 787.36 ± 0.15 kg/m3.
